Measured values from article PMC12744750 (Plant Communications, 2025).

Assays:
ETR1^306-738 = molecular target: T1, ETR1^306-738 (Arabidopsis thaliana, UniProt P49333); assay: Microscale thermophoresis, PLS binding to ETR1 lacking the transmembrane domain; settings: MST, as full-length; ETR1^306-738 lacking N-terminal transmembrane domain; listed as PLS
T1 construct: made in house
T1 sequence (P49333 306-738): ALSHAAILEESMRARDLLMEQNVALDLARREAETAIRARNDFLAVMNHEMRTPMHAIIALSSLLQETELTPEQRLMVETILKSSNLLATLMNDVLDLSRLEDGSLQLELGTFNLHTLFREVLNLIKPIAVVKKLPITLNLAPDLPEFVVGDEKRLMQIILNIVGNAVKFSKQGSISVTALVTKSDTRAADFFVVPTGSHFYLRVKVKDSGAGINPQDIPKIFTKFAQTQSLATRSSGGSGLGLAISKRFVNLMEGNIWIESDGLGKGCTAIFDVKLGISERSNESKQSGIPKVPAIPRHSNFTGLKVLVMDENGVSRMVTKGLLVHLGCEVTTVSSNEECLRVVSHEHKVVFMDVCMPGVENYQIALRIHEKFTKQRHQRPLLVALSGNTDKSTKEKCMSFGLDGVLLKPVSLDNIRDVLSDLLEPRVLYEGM
Procedure: Fluorescently labeled ETR1 truncation mutants ([Milić et al., 2018]) were added to a dilution series of synthetic PLS in 50 mM HEPES, 150 mM NaCl, and 0.015% (w/v) FosCholine 16 (pH 7.6) or 50 mM Tris, 300 mM NaCl, and 0.015% (w/v) FosCholine 16 (pH 7.6). Dissociation constants were calculated using GraphPad Prism 5.
Full-length ETR1 and its truncation mutants were purified and labeled as described previously ([Milić et al., 2018]). Synthetic PLS (94 μM) was diluted serially in 50 mM Tris and 300 mM NaCl (pH 7.6). Fluorescently labeled receptor was added at a final concentration of 50 nM. Thermophoretic behavior was measured in premium capillaries at 50% LED and 50% microscale thermophoresis power. In case of a binding event, data were fitted using GraphPad Prism 5.

ETR1 = assay: Yeast 2-hybrid PLS-ETR1; format: binding, Arabidopsis; settings: preliminary yeast 2-hybrid, YRG-2 strain
Procedure: The GAL4 2-hybrid phagemid vector system was used to detect protein–protein interactions in vivo in yeast, using the reporter genes β-galactosidase (lacZ) and histidine (HIS3) in the YRG-2 yeast strain, essentially as described previously ([Zhong et al., 2008]). DNA sequences encoding the target (ETR1) and bait (PLS) were inserted into the pAD-GAL4-2.1 A and pBD-GAL4 Cam phagemid vectors, respectively, and expressed as hybrid proteins. The hybrid proteins were then assayed for protein–protein interaction.
DNA sequences encoding the target and bait proteins were prepared by PCR amplification using primers designed specifically for the target (ETR1) and bait (PLS). Each set of primers contained specific endonuclease recognition sites on the ends corresponding to the restriction sites in the MCS of the pAD-GAL4-2.1 A and pBD-GAL4 Cam phagemid vectors. The DNA constructs for the target (ETR1) and bait (PLS) with specific restriction sites on the ends were then transformed into the TOPO 2.1 vector, and the sequence of the amplified DNA was confirmed by sequencing with M13 forward (CTG GCC GTC GTT TTA C) and M13 reverse (CAG GAA ACA GCT ATG AC) primers. […] The DNA sequences encoding the target (ETR1) and bait (PLS) were then ligated into the same reading frame as the GAL4 AD of the pAD-GAL4-2.1 phagemid vector and the GAL4 BD of the pBD-GAL4 Cam phagemid vector. […]

[1] = Anaerobic Cu(I) titration in competition with bicinchoninic acid (BCA); format: binding
Procedure: Freeze-dried synthetic PLS peptide (Cambridge Research Biochemicals) was dissolved in DMSO. An aliquot was added to aqueous buffer (10 mM HEPES [pH 7], 20 mM NaCl, 80 mM KCl), and absorbance was recorded at 280 nm. PLS concentration was estimated from the absorbance and the ProtParam estimated extinction coefficient of 2980 M^−1 cm^−1. Concurrently, a sample was submitted for quantitative amino acid analysis (Abingdon Health Laboratory Services). From this analysis, a conversion factor of 2.27 was generated, which was applied to the concentrations determined by A280 nm.
A fusion of PLS to MBP was created using the NEBExpress MBP Fusion and Purification System. Two complementary oligonucleotide primers encoding PLS (optimized for expression in E. coli) were annealed and inserted into the pMal-c5x plasmid at the XmnI and SalI insertion sites. The three mutants MBP:PLS(C6S), MBP:PLS(C17S), and MBP:PLS(C6S/C17S) were created by site-directed mutagenesis (QuikChange II, Agilent). E. coli NEB Express containing the pMal plasmid with the correct MBP:PLS mutant was used to overexpress each protein. Harvested cells were resuspended in 20 mM Tris–HCl (pH 7.4), 200 mM NaCl, and 1 mM EDTA, then frozen at −20°C overnight. Cells were defrosted in cold H2O, sonicated, purified by ammonium sulfate precipitation (where MBP-PLS precipitates >60% saturation), separated on an MBP-Trap column (GE Healthcare), and eluted using buffer containing 10 mM maltose. MBP:PLS-containing fractions were pooled and concentrated using a centrifugal concentrator (Corning, Spin-X UF 30 kDa) and buffer exchanged by desalting column into a metal-free buffer of 20 mM HEPES (pH 7.0) and 50 mM NaCl in an anaerobic chamber (Belle Technology). Mutants containing thiols were quantified using Ellman’s assay, and MBP:PLS(C6S/C17S), which lacks all thiols, was quantified using the Bradford assay alone. Samples were also analyzed for metal content by ICP–MS to ensure >95% apo-protein.
All Cu(I) titration experiments were carried out in an anaerobic chamber (Belle Technology) using metal-free CHELEX-treated, degassed buffers. For titration experiments with Cu(I), aqueous CuSO4 stock was quantified in advance by ICP–MS and diluted to working concentrations. The reductant NH2OH was included at a final concentration of 1 mM to maintain Cu(I) in its reduced state. Proteins were diluted in buffer to the final concentration specified in each titration in air-tight quartz cuvettes (Helma), and after addition of probe to the concentration specified, titrated with CuSO4. After each addition, solutions were thoroughly mixed and absorbance spectra recorded using a Lambda 35 UV/Vis spectrophotometer (PerkinElmer). Titration isotherm data were fitted using simulated affinity curves with DynaFit ([Kuzmič, 2009]).

[2] = 44.8 μM synthetic PLS, 87 μM BCA, anaerobic

In the case of “PLS(FL): full-length 36-amino-acid PLS peptide from Arabidopsis (MKPRLCFNFRRRSISPCYISISYLLVAKLFKLFKIH)”, the “binding (dissociation constant)” value (ETR1^306-738) was “no binding was detected”, the “interaction with ETR1” value (ETR1) was “interacts with ETR1” and the “Cu(I) affinity relative to BCA” value [1, 2] was “tighter than that of BCA”. For the same substance, the “increase in Cu(I) concentration required to saturate BCA” value [1, 2] was ~20 µM and the “withholding of Cu(I) from BCA” value ([1]; synthetic peptide, mutant 40 μM, BCA 93.3 μM, mean ± SD, n = 3 (supplemental Figure 10)) was “withholds Cu(I) from BCA”.
